Results on three compounds are retold here after patent publication US4551450A, “Rifamycin hydrazones, pharmaceutical compositions containing them and their use” (Ciba-Geigy Corporation, priority 1984, dated 1985).

Values after ≈ are worked out from the molar mass of the structure shown.

Series [1] has as its system Mycobacterium tuberculosis TB H3 Rv. Nature of the series: Antituberculotic action, minimum inhibitory concentration in a plate test in vitro. The series is classed as cell-based. The note with it: M. tuberculosis TB H3 Rv; for Antituberculotic action, MIC (minimum inhibitory concentration): plate test in vitro. An excerpt:
(§1) (2) Test organism: Mycobacterium tuberculosis TB H3 Rv
(3) Minimum inhibitory concentration in a plate test in vitro.

The test system is the same in series [2]. Put plainly: Antituberculotic action, in vivo test (mice), administration p.o. To be noted: in vivo, mice, p.o.; for ED50: Mycobacterium tuberculosis, TBH3RV, po, read-out: Antituberculotic action, ED50. Set-up: species or system Mycobacterium tuberculosis; mice.
From the text: as §1
(4) In vivo test (mice); administration p.o.

The nature of the next series: Pharmacokinetics in mice. The series is classed as in vivo. From the text:
(§2) (5) Half-life period of excretion (in hours).
(§3) (6) Highest concentration of the active ingredient in the blood plasma.

Another series is described as follows: Pharmacokinetics in rats. The series is classed as in vivo. The note with it: for Cmax: read-out: Cmax (highest concentration of the active ingredient in the blood plasma).
From the text: as §2, §3

The subject of the next series is tuberculosis infections. The note with it: prior art, U.S. Pat. No. 3,342,810; cited from earlier work.
For series [3] the following is noted: prior art statement, in some cases; cited from earlier work.

Usually ED50 stands for the dose at which the effect has come halfway, by size or by number of responders. With `CO[C@H]1/C=C/O[C@@]2(C)Oc3c(C)c(O)c4c(O)c(c(/C=N/N5CCN(C)CC5)c(O)c4c3C2=O)NC(=O)/C(C)=C\C=C\[C@H](C)[C@H](O)[C@@H](C)[C@@H](O)[C@@H](C)[C@H](OC(C)=O)[C@@H]1C` [Rifampicin, hydrazone of 3-formylrifamycin SV with 1-amino-4-methylpiperazine, reference compound], the MIC in series [1] (Mycobacterium tuberculosis, TBH3RV, read-out: Antituberculotic action, MIC (minimum inhibitory concentration), plate test in vitro) worked out at 0.03 µg/mL (≈ 0.0365 µM). For the same compound, the ED50 in series [2] is 5.9 mg/kg. In addition, the Cmax was found to be 24800 ng/mL in “Pharmacokinetics in mice” (mouse, plasma, blood plasma, read-out: Cmax (highest concentration of the active ingredient in the blood plasma)) and 13900 ng/mL in “Pharmacokinetics in rats” (rat, blood plasma). Moreover, the antituberculotic activity result with tuberculosis infections is recorded as “excellent antituberculotic activity”. Further, the “dwell time in the organism” value in series [3] is reported as “relatively short dwell time in the organism”.

For the compound `COC1C=COC2(C)Oc3c(C)c(O)c4c(O)c(c(C=NN5CC6CCCCN6CC5C)c(O)c4c3C2=O)NC(=O)C(C)=CC=CC(C)C(O)C(C)C(O)C(C)C(OC(C)=O)C1C` (single isomer, unassigned) [Example 5 Isomer B, hydrazone of 3-formylrifamycin SV with 3-amino-2-methylperhydro-1H-pyrido[1,2-a]pyrazine], the “Antituberculotic action, MIC (minimum inhibitory concentration)” value in series [1] (listed as 5 Isomer B) stood at 0.4 µg/mL. Further, the “Antituberculotic action, ED50” value in series [2] (listed as 5 Isomer B) was determined as 2 mg/kg. Also, the “Cmax (highest concentration of the active ingredient in the blood plasma)” value stood at 38.8 µg/mL in the series “Pharmacokinetics in mice” (blood plasma, listed as 5 Isomer B) and 16.4 µg/mL in “Pharmacokinetics in rats” (blood plasma). The “t/2 (half-life period of excretion)” value in “Pharmacokinetics in mice” (listed as 5 Isomer B) was determined as 66 h; in the series “Pharmacokinetics in rats” it was 44.7 h.

With `COC1C=COC2(C)Oc3c(C)c(O)c4c(O)c(c(C=NN5CC6CCCCN6CC5C)c(O)c4c3C2=O)NC(=O)C(C)=CC=CC(C)C(O)C(C)C(O)C(C)C(OC(C)=O)C1C` (single isomer, unassigned) [Example 5 Isomer A, hydrazone of 3-formylrifamycin SV with 3-amino-2-methylperhydro-1H-pyrido[1,2-a]pyrazine], the “Antituberculotic action, MIC (minimum inhibitory concentration)” value in series [1] (listed as 5 Isomer A) is 0.2 µg/mL. Moreover, the ED50 in series [2] turned out to be 3 mg/kg. The “Cmax (highest concentration of the active ingredient in the blood plasma)” value in the series “Pharmacokinetics in mice” (blood plasma, listed as 5 Isomer A) worked out at 15 µg/mL. In addition, the “t/2 (half-life period of excretion)” value in the series “Pharmacokinetics in mice” (listed as 5 Isomer A) is 69.3 h. Also, the half-life in the series “Pharmacokinetics in rats” (rat, in vivo, read-out: t/2 (half-life period of excretion) (converted)) is 2.44 days. Further, the Cmax in the series “Pharmacokinetics in rats” (rat, plasma, blood plasma) worked out at 19700 ng/mL.
